Test results taken from US20190177284A1, “TETRAZOLYL-CONTAINING CYCLOPROPANECARBOXAMIDES” (Bayer Pharma Aktiengesellschaft, priority 2017, published 2019).

target: T1, human Bradykinin B1 receptor (Homo sapiens, UniProt P46663); test: Calcium flux Assay (FLIPR) with cells expressing human Bradykinin B1 receptor (hB1); type: cell-based; conditions: absence of 0.1% BSA in assay buffer; CHO-K1 cell line expressing human B1 receptor; agonist Lys-(Des-Arg)-Bradykinin; read-out: hB1 free IC50
T1 construct: host or cells: CHO-K1
T1 sequence (P46663 1-353): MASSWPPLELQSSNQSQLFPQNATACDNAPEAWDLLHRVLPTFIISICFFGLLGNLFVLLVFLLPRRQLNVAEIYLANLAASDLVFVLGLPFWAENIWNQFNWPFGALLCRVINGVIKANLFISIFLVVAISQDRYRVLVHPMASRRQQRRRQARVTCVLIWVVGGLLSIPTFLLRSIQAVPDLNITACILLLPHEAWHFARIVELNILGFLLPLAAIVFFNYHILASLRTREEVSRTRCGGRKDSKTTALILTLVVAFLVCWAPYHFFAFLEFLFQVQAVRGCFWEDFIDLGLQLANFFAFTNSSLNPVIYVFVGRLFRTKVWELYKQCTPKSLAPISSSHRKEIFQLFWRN
Protocol: The potency to inhibit the Bradykinin B1 receptor was determined for the compound examples of this invention in a cell-based fluorescent calcium-mobilisation assay. The assay measures the ability of compound examples to inhibit Bradykinin B1 receptor agonist-induced increase of intracellular free Ca^2+ in the cell line expressing Bradykinin B1 receptor. Specifically, calcium indicator-loaded cells are pre-incubated in the absence or presence of different concentrations of compound examples followed by the stimulation with a selective Bradykinin B1 receptor agonist peptide. The change of the intracellular Ca^2+ concentration is monitored with a fluorescent plate reader FLIPR^TETRA®
Calcium flux Assays (FLIPR) with cells expressing human Bradykinin B1 receptor (hB1) Calcium flux Assay (FLIPR) with recombinant cells for Bradykinin B1 receptor antagonist, either in the presence (hB1 IC50) or absence (hB1 free IC50) of 0.1% Bovine Serum Albumin (BSA) in assay buffer.
CHO—K1 cell line expressing human B1 receptor was purchased from Euroscreen (Gosselies, Belgium, with reference name hB1-D1). The cells were grown in Nutrient Mixture Ham's F12 (Sigma) containing 10% Foetal bovine serum (Sigma) and 400 μg/mL G418 (Sigma), 5 μg/mL puromycin (Sigma).
For the calcium flux assay, 80% confluent cells were detached from the culture vessels with Versene (Gibco), and seeded into 384-well plates (Cell binding Surface; Corning, N.Y.; #3683) at a density of 15,000 cells per well. Cells were seeded in a volume of 50 μL in medium without antibiotics and incubated overnight in a humidified atmosphere with 5% CO2 at 37° C. […] The calcium indicator loaded cells were incubated at 37° C. for 2 hrs. Extracellular dye was then removed and each well was filled with 45 μL of assay buffer. Cell plates were kept in dark until used. Example compounds were assayed at 8 concentrations in triplicate. Serial 10-fold dilutions in 100% DMSO were made at a 100-times higher concentration than the final concentration, and then diluted 1:10 in assay buffer. 5 μL of each diluted compound was added to the well of cell plates (yielding final concentration with 1% DMSO), and incubated for 30 min at 28° C. before the addition of B1 receptor agonist on the FLIPR instrument.
Agonist plates contained the agonist Lys-(Des-Arg)-Bradykinin (Bachem, Brackley) at 3.5×EC90 in assay buffer with 1% DMSO. The addition of agonist 20 μl per well to the assay plate was carried out on the FLIPR instrument while continuously monitoring Ca^2+-dependent fluorescence at 538 nm. A peptide antagonist Lys-(Des-Arg-Leu)-Bradykinin (Bachem, Brackley) at 20 μM was used to determine the full inhibition as control.
Peak fluorescence was used to determine the response to agonist obtained at each concentration of example compound by the following equation:
% Response=100*(RFU(example compound)−RFU(control))/(RFU(DMSO)−RFU(control)) • RFU means relative fluorescence units. • Control means full inhibition by the peptide antagonist Lys-(Des-Arg-Leu)-Bradykinin at 20
The response values were plotted against the logarithm of the example compound concentrations. The example compounds were tested in triplicates per plate and mean values were plotted in Excel XLfit to determine IC50 values, percentage of maximal inhibition and the Hill slopes.
IC50 values of example compounds in Calcium flux Assay (FLIPR) as shown in table 1 were determined according to the protocol described above in the absence of 0.1% BSA in assay buffer.

`O=C(NC1CCOCC1)c1ccc(NC(=O)C2(c3ccc(C(F)(F)F)cc3F)CC2)cc1-c1nnn[nH]1` [Example 45, 4-[({1-[2-Fluoro-4-(trifluoromethyl)phenyl]cyclopropyl}carbonyl)amino]-N-(tetrahydro-2H-pyran-4-yl)-2-(1H-tetrazol-5-yl)benzamide] was tested. Which IC50 did it give?
Its IC50 is 0.133 µM.

For `CN(C(=O)c1ccc(NC(=O)C2(c3cccc(Cl)c3)CC2)cc1-c1nnn[nH]1)C1CCOCC1` [Example 46, 4-({[1-(3-Chlorophenyl)cyclopropyl]carbonyl}amino)-N-methyl-N-(tetrahydro-2H-pyran-4-yl)-2-(1H-tetrazol-5-yl)benzamide], which IC50 is on record?
Its IC50 is 3.3 µM.

With `CN(C(=O)c1ccc(NC(=O)C2(c3ccc(C(F)(F)F)cc3F)CC2)cc1-c1nnn[nH]1)C1CCOCC1` [Example 47, 4-[({1-[2-Fluoro-4-(trifluoromethyl)phenyl]cyclopropyl}carbonyl)amino]-N-methyl-N-(tetrahydro-2H-pyran-4-yl)-2-(1H-tetrazol-5-yl)benzamide] as the compound, how does the IC50 read?
The IC50 was 0.445 µM.

With `O=C(NCC1CCOCC1)c1ccc(NC(=O)C2(c3ccc(C(F)(F)F)cc3F)CC2)cc1-c1nnn[nH]1` [Example 48, 4-[({1-[2-Fluoro-4-(trifluoromethyl)phenyl]cyclopropyl}carbonyl)amino]-N-(tetrahydro-2H-pyran-4-ylmethyl)-2-(1H-tetrazol-5-yl)benzamide] as the compound, how does the IC50 read?
Its IC50 is 0.06 µM.

With `CN(CC1CCOCC1)C(=O)c1ccc(NC(=O)C2(c3ccc(C(F)(F)F)cc3F)CC2)cc1-c1nnn[nH]1` [Example 49, 4-[({1-[2-Fluoro-4-(trifluoromethyl)phenyl]cyclopropyl}carbonyl)amino]-N-methyl-N-(tetrahydro-2H-pyran-4-ylmethyl)-2-(1H-tetrazol-5-yl)benzamide] as the compound, how does the IC50 read?
Its IC50 is 1.8 µM.

Which IC50 does the source give for `COC[C@@H](C)NC(=O)c1ccc(NC(=O)C2(c3ccc(C(F)(F)F)cc3F)CC2)cc1-c1nnn[nH]1` [Example 50, 4-[({1-[2-Fluoro-4-(trifluoromethyl)phenyl]cyclopropyl}carbonyl)amino]-N-[(2R)-1-methoxypropan-2-yl]-2-(1H-tetrazol-5-yl)benzamide] here?
Its IC50 is 0.089 µM.

For `COC[C@H](C)NC(=O)c1ccc(NC(=O)C2(c3ccc(C(F)(F)F)cc3F)CC2)cc1-c1nnn[nH]1` [Example 51, 4-[({1-[2-Fluoro-4-(trifluoromethyl)phenyl]cyclopropyl}carbonyl)amino]-N-[(2S)-1-methoxypropan-2-yl]-2-(1H-tetrazol-5-yl)benzamide], which IC50 is on record?
Its IC50 is 0.409 µM.

Which IC50 does the source give for `COC(C)(C)CNC(=O)c1ccc(NC(=O)C2(c3ccc(C(F)(F)F)cc3F)CC2)cc1-c1nnn[nH]1` [Example 52, 4-[({1-[2-Fluoro-4-(trifluoromethyl)phenyl]cyclopropyl}carbonyl)amino]-N-(2-methoxy-2-methylpropyl)-2-(1H-tetrazol-5-yl)benzamide] here?
Its IC50 is 0.143 µM.

How did the IC50 turn out when `O=C(N[C@@H]1CCOC1)c1ccc(NC(=O)C2(c3ccc(C(F)(F)F)cc3F)CC2)cc1-c1nnn[nH]1` [Example 53, 4-[({1-[2-Fluoro-4-(trifluoromethyl)phenyl]cyclopropyl}carbonyl)amino]-N-[(3R)-tetrahydrofuran-3-yl]-2-(1H-tetrazol-5-yl)benzamide] was run?
The IC50 was 3.61 µM.

How did the IC50 turn out when `O=C(N[C@H]1CCOC1)c1ccc(NC(=O)C2(c3ccc(C(F)(F)F)cc3F)CC2)cc1-c1nnn[nH]1` [Example 54, 4-[({1-[2-Fluoro-4-(trifluoromethyl)phenyl]cyclopropyl}carbonyl)amino]-N-[(3S)-tetrahydrofuran-3-yl]-2-(1H-tetrazol-5-yl)benzamide] was run?
The IC50 was 1.53 µM.

`CC(C)CN(C)C(=O)c1ccc(NC(=O)C2(c3ccc(C(F)(F)F)cc3F)CC2)cc1-c1nnn[nH]1` [Example 55, 4-[({1-[2-Fluoro-4-(trifluoromethyl)phenyl]cyclopropyl}carbonyl)amino]-N-isobutyl-N-methyl-2-(1H-tetrazol-5-yl)benzamide] was tested. Which IC50 did it give?
The IC50 was 1.77 µM.
